# From US9260375B2, “Metallo-β-lactamase inhibitors” (priority 2005, dated 2016)
# What was measured:
# [1] = system: IMP-1 producing Pseudomonas aeruginosa strain PAO1/pMS363; format: cell-based; conditions: no inhibitor, in µg/mL
# Description: IMP-1 producing Pseudomonas aeruginosa strain PAO1/pMS363 (FEMS Microbiology Letters 1994, 121, 175) was used for evaluating the inhibitory effect of maleic acid derivatives on the resistance against carbapenem by the metallo-β-lactamase in bacteria.
# VIM-2 = biological target: T1, VIM-2 (UniProt Q5U7L7); experiment: biochemical; conditions: nitrocefin 100 μM, VIM-2 1.5 nM, ZnSO4 100 μM, 50 mM HEPES pH 7.5, room temperature 20 min; read-out: IC50 of each inhibitor against VIM-2
# T1 construct: His tag (C); made in house; host or cells: E. coli DH5α
# Procedure: (§1) The PCR product was integrated into pTrcHis2 TOPO vector (Invitrogen), and then introduced into E. coli DH5α (TOYOBO) for culture under the induction of 0.5 mM Isopropyl-β-D-(−)-thiogalactopyranoside (Wako) at 37° C. for 3 h to express IMP-1. After recovering the bacterial cells, the periplasmic fraction was extracted by ocmotic shock with sucrose to refine the IMP-1 by Ni-NTA Slurry (QIAGEN) with the His tag at the C-terminus.
# (§2) In order to determine the inhibitory activity of metallo-β-lactamase, a 50 mM HEPES (pH 7.5) buffer (referred to hereinafter as “buffer”) was used, and nitrocefin (Oxoid) with the final concentration of 100 μM was used as a substrate. A test drug (material to be tested: compound having an Example Number shown in Table 2) was added to each well of a 96-well plate, into which nitrocefin was added and mixed. Then, IMP-1 or VIM-2 was added to each well in the final concentration of 1 nM or 1.5 nM, respectively to react the mixture at room temperature for 20 min. In this case, ZnSO4 was added in the final concentration of 100 μM in order to exclude the inhibitory effect by the chelate effect. Enzyme inhibiting activity was determined by measuring the hydrolysis activity of nitrocefin at a wave length of 490 nm with ARVOsx microplate reader (Wallac).
# IMP-1 = biological target: T2, IMP-1 (Serratia marcescens, UniProt P52699); experiment: biochemical; conditions: nitrocefin 100 μM, IMP-1 1 nM, ZnSO4 100 μM, 50 mM HEPES pH 7.5, room temperature 20 min; read-out: IC50 of each inhibitor against IMP-1
# T2 construct: The total length of IMP-1 as a metallo-β-lactamase was amplified by PCR; His tag (C); made in house; host or cells: E. coli DH5α, pTrcHis2 TOPO vector, periplasmic fraction
# Procedure: as §1, §2
# T2 sequence (P52699 19-246 limits assumed): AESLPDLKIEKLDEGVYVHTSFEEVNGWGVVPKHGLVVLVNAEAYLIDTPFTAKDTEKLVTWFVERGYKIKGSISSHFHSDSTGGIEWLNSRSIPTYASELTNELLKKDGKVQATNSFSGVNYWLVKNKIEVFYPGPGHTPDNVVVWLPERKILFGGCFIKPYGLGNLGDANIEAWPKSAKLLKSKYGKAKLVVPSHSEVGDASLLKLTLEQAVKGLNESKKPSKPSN
smiles,measurement,setting,value
"C[C@@H](O)[C@H]1C(=O)N2C(C(=O)O)=C(S[C@@H]3CN[C@H](CNS(N)(=O)=O)C3)[C@H](C)[C@H]12 [DRPM, doripenem]","MIC of β-lactam drugs, β-lactam alone",[1],128
"CO/N=C(\C(=O)N[C@@H]1C(=O)N2C(C(=O)O)=C(CSc3nc(=O)c(=O)[nH]n3C)CS[C@H]12)c1csc(N)n1 [CTRX, ceftriaxone]","MIC of β-lactam drugs, β-lactam alone",[1],4096
"CC(C)/C(C(=O)O)=C(\Cc1cccnc1)C(=O)O [Example 54, 2-Isopropyl-3-[(pyridine-3-yl)methyl]maleic acid disodium]",IC50,VIM-2,5.3 µM
same,IC50,IMP-1,2.8 µM
"CC/C(C(=O)O)=C(\SC(C)C)C(=O)O [Example 66, 3-Ethyl-2-isopropylthiomaleic acid disodium]",IC50,VIM-2,14 µM
same,IC50,IMP-1,1.2 µM
"C[C@@H](O)[C@H]1C(=O)N2C(C(=O)O)=C(S[C@H]3C[C@@H](C(=O)N4CC[C@H](NC(=O)CNC(=N)N)C4)N(C)C3)[C@H](C)[C@H]12 [CS-023, (−)-(4R,5S,6S)-3-[[(3S,5S)-5-[(S)-3-(2-guanidinoacetylamino)pyrrolidin-1-ylcarbonyl]-1-methylpyrrolidin-3-yl]thio]-6-[(R)-1-hydroxyethyl]-4-methyl-7-oxo-azabicyclo[3.2.0]hept-2-ene-2-carboxylic acid]","MIC of β-lactam drugs, β-lactam alone",[1],256
"CC(C)/C(C(=O)O)=C(/C(=O)O)C1CCCCC1 [Example 43, 2-Cyclohexyl-3-isopropylmaleic acid disodium]",IC50,VIM-2,0.16 µM
same,IC50,IMP-1,0.19 µM
"CC/C(C(=O)O)=C(\Cc1ccccc1)C(=O)O [Example 11, 2-benzyl-3-ethylmaleic acid disodium]",IC50,VIM-2,3 µM
same,IC50,IMP-1,0.29 µM
"CC(C)/C(C(=O)O)=C(\Cc1ccc(O)cc1)C(=O)O [Example 86, 2-(4-Oxidobenzyl)-3-isopropylmaleic acid trisodium]",IC50,VIM-2,1.9 µM
same,IC50,IMP-1,0.56 µM
"C[C@@H](O)[C@H]1C(=O)N2C(C(=O)O)=C(SCCN=CN)C[C@H]12 [IPM, imipenem]","MIC of β-lactam drugs, β-lactam alone",[1],128-256
"CO/N=C(\C(=O)N[C@@H]1C(=O)N2C(C(=O)[O-])=C(C[N+]3(C)CCCC3)CS[C@H]12)c1csc(N)n1 [CFPM, cefepime]","MIC of β-lactam drugs, β-lactam alone",[1],2048
"C/C(C(=O)O)=C(/C(=O)O)C(C)C [Example 22, 2-isopropyl-3-methylmaleic acid disodium]",IC50,VIM-2,7.3 µM
same,IC50,IMP-1,2.4 µM
"CC(C)/C(C(=O)O)=C(/C(=O)O)C1CCOCC1 [Example 51, 3-Isopropyl-2-(tetrahydropyran-4-yl)maleic acid disodium]",IC50,VIM-2,1.8 µM
same,IC50,IMP-1,1.9 µM
"C[C@@H](O)[C@H]1C(=O)N2C(C(=O)[O-])=C(SC3Cn4cnc[n+]4C3)[C@H](C)[C@H]12 (stereo partly shown) [BIPM, biapenem]","MIC of β-lactam drugs, β-lactam alone",[1],64-128
"CC(C)/C(C(=O)O)=C(\Cc1ccc(OCCN)cc1)C(=O)O [Example 92, 2-[4-(2-aminoethoxy)benzyl]-3-isopropylmaleic acid disodium]",IC50,VIM-2,0.3 µM
same,IC50,IMP-1,0.98 µM
"CC(C)/C(C(=O)O)=C(\Cc1ccc(C(N)=O)cc1)C(=O)O [Example 72, 2-(4-Carbamoylbenzyl)-3-isopropylmaleic acid disodium]",IC50,VIM-2,0.6 µM
same,IC50,IMP-1,1.4 µM
"CC(C)(O/N=C(\C(=O)N[C@@H]1C(=O)N2C(C(=O)[O-])=C(C[n+]3ccccc3)CS[C@H]12)c1csc(N)n1)C(=O)O [CAZ, ceftadizime]","MIC of β-lactam drugs, β-lactam alone",[1],2048
